Several values for one entry are separate records, joined by “and”; a condition that tells them apart may be missing. Equal values may be shown once.
Test system: GL3 luciferase gene
Experiment: Evaluation of each siRNA using Dual-Luc reporter system (expression-suppressive activity)
Format: cell-based, Human
Conditions: for suppressive activity against luciferase expression compared with control RNA: Dual-Luc reporter system, HCT116 cells, comparison drawn from Table 1; for IC50: HCT116 cells transfected with vector OFF#085 or OFF#086, siRNA reverse transfection with Lipofectamine RNAiMAX, two-night culture, luciferase activity (Renilla/firefly), Dual-Glo, read-out: 50% inhibition concentration
Protocol: Each siRNA was evaluated using a Dual-Luc reporter system as described below.
A restriction enzyme sequence was added to a sequence containing a 19-base sequence complementary to the antisense strand of siRNA against the GL3 luciferase gene (Elbashir S M et al., Nature, Vol. 411, 24 May 2001, 494-498), and its 5′-flanking 10 bases and 3′-flanking 10 bases. The resulting sequence was incorporated into the XhoI/NotI site of a psiCHECK2 plasmld (Promega KK) either in a forward direction (sequence A) or in a reverse direction (sequence B) to construct vectors for the expression of firefly Iuciferase and Renilla luciferase, OFF#085 and OFF#086, respectively.
Human colon cancer cell line HCT116 cells (ATCC) were inoculated at a density of 3×10^6 cells/10 ml/75 cm^2 flask. After overnight culture at 37° C. in 5% CO2, the cells were transfected with the vector OFF#085 or OFF#086 obtained in the preceding paragraph 1) using FuGENE 6 (F. Hoffmann-La Roche Ltd.) and further cultured overnight. Each siRNA synthesized in Example 5 and Comparative Example was diluted with PBS into two serial dilutions of 3.3 nM (final) and 0.0043 nM or 12 serial dilutions from 10 nM to 56 fM and used in reverse transfection of 1.6×10^4 cells/100 μL/well using Lipofectamine RNAiMAX reagent (Invitrogen Corp.). After two-night culture, firefly luciferase activity and Renilla luciferase activity were measured using Dual-Glo Luc Assay kit (Promega KK) according to the attached document. When the luciferase activity (Renilla/firefly) of cells reverse-transfected with 10 nM BLOCK-iT™ Alexa Fluor® Red Fluorescent Oligo (Invitrogen Corp.) was defined as 100%, the luciferase activity of the cells transfected with each siRNA was calculated. The IC50 value was calculated using GraphPad Prism 5.

| Substance | suppressive activity against luciferase expression compared with control RNA | IC50 |
| --- | --- | --- |
| siRNA (2): siRNA of sense strand SEQ ID NO: 1 and antisense strand SEQ ID NO: 3 containing one formula (II) partial structure U(K2) induced from compound 22 (sense CUUACGCUGAGUACUUCGATT; antisense UCGAAGUACUCAGCGUAAGTT; chemistry not fully specified) | higher suppressive activity | 0.009 nM |
| Control RNA: Control siRNA of sense strand SEQ ID NO: 4 and antisense strand SEQ ID NO: 5, free from compound 11 or 22 (sense CUUACGCUGAGUACUUCGATT; antisense UCGAAGUACUCAGCGUAAGTT; chemistry not fully specified) [reference compound] |  | 0.024 nM and 0.012 nM |
| siRNA (1): siRNA of sense strand SEQ ID NO: 1 and antisense strand SEQ ID NO: 2 containing one formula (II) partial structure U(K) induced from compound 11 (sense CUUACGCUGAGUACUUCGATT; antisense UCGAAGUACUCAGCGUAAGTT; chemistry not fully specified) | higher suppressive activity | 0.007 nM |

Reference: patent publication US9725474B2, “Modified nucleic acid” (TAKEDA PHARMACEUTICAL COMPANY LIMITED, priority 2012, dated 2017)
